Key:
purified, active Btk = purified, active Btk (Homo sapiens, UniProt Q06187); experiment: Btk labeling in vitro (purified enzyme, SDS-PAGE, fluorescent scan)
c-met = c-met (Homo sapiens, UniProt P08581); experiment: TR-FRET kinase assay, c-met; assay type: biochemical; conditions: ATP at Km
Protocol: (§1) Kinase activity for Btk, Abl, c-met, ITK, LCK, and EGFR was determined using a time-resolved fluorescence resonance energy transfer (TR-FRET) methodology. Measurements were performed in a reaction volume of 50 μl using 96-well assay plates. […] The reaction was quenched by the addition of 1.2 equivalents of EDTA (relative to divalent cation) in 25 μL of 1× Lance buffer (Perkin-Elmer). Streptavidin-APC (Perkin-Elmer) and Eu-labeled p-Tyr100 antibody (Perkin-Elmer) in 1× Lance buffer were added in a 25 μL volume to give final concentrations of 100 nM and 2.5 nM, respectively, and the mixture was allowed to incubate for one hour. The TR-FRET signal was measured on a multimode plate reader with an excitation wavelength of 330 nm and detection wavelengths of 615 and 665 nm. Activity was determined by the ratio of the fluorescence at 665 nm to that at 615 nm. For each compound, enzyme activity was measured at various concentrations of compound. Negative control reactions were performed in the absence of inhibitor in replicates of six, and two no-enzyme controls were used to determine baseline fluorescence levels. Inhibition constants {Ki(app)} were obtained using the program BatchKi (23). […]; for all kinases, [ATP]=KmATP, [Btk]total=0.5 nM and [Lck]total=6 nM.

[1] = test system: intracellular calcium mobilization in Ramos cells following B cell receptor activation; experiment: Calcium flux assay in Ramos B-cells stimulated with anti-human IgM; assay type: cell-based; conditions: anti-IgM stimulation, read-out: IC50 Ca2+ flux (calcium mobilization)
Protocol: Calcium flux assay was performed according to the protocol described by the manufacturer (Molecular Devices). Briefly, actively growing Ramos B-cells in RPMI medium supplemented with 10% FBS were washed and re-plated in low serum medium to approximately 5×10^5 cells per 100 μl per well in 96-well plate. Compounds to be assayed were dissolved in DMSO, diluted to appropriate concentrations in low serum medium (from 0 to 10 μM final concentrations at a stepwise dilution factor of 0.3), added to each well (the final DMSO concentration was 0.01% in each well) and incubated at 37° in a 5% CO2 incubator for 1 hour. 100 μl calcium assay dye (Calcium 3 assay kit, Molecular Devices) was then added to each well and the incubation was continued for one hour. Compound-treated cells were stimulated with a goat anti-human IgM antibody (80 μg/ml) and the calcium mobilization signal was read in a Flexstation II 384 (Molecular Devices) at excitation and emission wavelengths of 485 nm and 538 nm, respectively, for 200 seconds. The relative fluorescence units (RFU) and the fifty percent inhibition values (IC50%) were recorded and analyzed using the SoftMax program (Molecular Devices).

Abl = Abl (Homo sapiens, UniProt P00519); experiment: TR-FRET kinase assay, Abl; assay type: biochemical; conditions: ATP at Km
Protocol: (§2) Kinase activity for Btk, Abl, c-met, ITK, LCK, and EGFR was determined using a time-resolved fluorescence resonance energy transfer (TR-FRET) methodology. Measurements were performed in a reaction volume of 50 μl using 96-well assay plates. […] For each compound, enzyme activity was measured at various concentrations of compound. Negative control reactions were performed in the absence of inhibitor in replicates of six, and two no-enzyme controls were used to determine baseline fluorescence levels. Inhibition constants {Ki(app)} were obtained using the program BatchKi (23).

EGFR = EGFR (Homo sapiens, UniProt P00533); experiment: TR-FRET kinase assay, EGFR; assay type: biochemical; conditions: ATP at Km
Protocol: as §1

Lck = Lck (Homo sapiens, UniProt P06239); experiment: TR-FRET kinase assay, Lck; assay type: biochemical; conditions: ATP at Km
Protocol: as §2

Btk [2] = target: T1, Btk (Homo sapiens, UniProt Q06187); experiment: Inhibition of PLCγ2 phosphorylation at Tyr 1217 in 293H cells (ELISA); assay type: cell-based; conditions: Tyr 1217, ELISA, read-out: IC50 for probe inhibition of PLCγ2 phosphorylation
Btk [3] = target: T1, Btk; experiment: TR-FRET kinase assay, Btk; assay type: biochemical; design: His6 (N); purchased Upstate Biochem
Protocol: as §1

Btk [4] = target: T1, Btk; experiment: Probe labeling of endogenous Btk in cultured B cells (DOHH2)
Protocol: In some embodiments, to determine if a test Btk probe detects endogenous levels of Btk activity, label cultured B cells such as Ramos or DOHH2 B cells were used.
Cells were then harvested and lysed by incubation in 50 μl of cell lysis buffer (CelLytic M, Sigma) supplemented with 1× protease inhibitor and 1× phosphatase inhibitor cocktails (Calbiochem) for 10 min on ice. The protein concentrations in cell lysates were determined by Bradford protein assay (Pierce). Lysates equivalent to 20 μg of total protein were fractionated on 4 to 20% SDS-gradient gels (Invitrogen), and scanned using a Typhoon densitometer as described above. Labeling of Ramos cells was carried out in identical fashion except RPMI medium was used.

Btk [5] = target: T1, Btk; experiment: Probe labeling of Btk in 293H cells stably co-expressing Btk and PLCγ2
[6] = target: Btk Cys 481 to Ala mutation (Homo sapiens, UniProt Q06187, C481A); experiment: Probe labeling in 293H cells transiently co-expressing PLCγ2 and Btk C481A; conditions: transient co-expression with PLCγ2
Protocol: (§3) The selected co-expressor cell line was routinely maintained in D-MEM containing 10% FBS, 1× non-essential amino acids, 1× antibiotics, and supplemented with 200 μg/ml G418 and 25 μg/ml blastocidin. […] Cells were then harvested and lysed by incubation in 50 μl of cell lysis buffer (CelLytic M, Sigma) supplemented with 1× protease inhibitor and 1× phosphatase inhibitor cocktails (Calbiochem) for 10 min on ice. The protein concentrations in cell lysates were determined by Bradford protein assay (Pierce). Lysates equivalent to 20 μg of total protein were fractionated on 4 to 20% SDS-gradient gels (Invitrogen), and scanned using a Typhoon densitometer as described above. Labeling of Ramos cells was carried out in identical fashion except RPMI medium was used.

[7] = target: Btk Lys 430 to Ala mutant (Homo sapiens, UniProt Q06187, K430A); experiment: Probe labeling in 293H cells transiently co-expressing PLCγ2 and Btk K430A; conditions: transient co-expression with PLCγ2
Protocol: as §3

[8] = target: Btk Tyr 551 to Ala mutant (Homo sapiens, UniProt Q06187, Y551A); experiment: Probe labeling in 293H cells transiently co-expressing PLCγ2 and Btk Y551A; conditions: transient co-expression with PLCγ2
Sequence of Btk Tyr 551 to Ala mutant (Q06187 whole entry Y551A): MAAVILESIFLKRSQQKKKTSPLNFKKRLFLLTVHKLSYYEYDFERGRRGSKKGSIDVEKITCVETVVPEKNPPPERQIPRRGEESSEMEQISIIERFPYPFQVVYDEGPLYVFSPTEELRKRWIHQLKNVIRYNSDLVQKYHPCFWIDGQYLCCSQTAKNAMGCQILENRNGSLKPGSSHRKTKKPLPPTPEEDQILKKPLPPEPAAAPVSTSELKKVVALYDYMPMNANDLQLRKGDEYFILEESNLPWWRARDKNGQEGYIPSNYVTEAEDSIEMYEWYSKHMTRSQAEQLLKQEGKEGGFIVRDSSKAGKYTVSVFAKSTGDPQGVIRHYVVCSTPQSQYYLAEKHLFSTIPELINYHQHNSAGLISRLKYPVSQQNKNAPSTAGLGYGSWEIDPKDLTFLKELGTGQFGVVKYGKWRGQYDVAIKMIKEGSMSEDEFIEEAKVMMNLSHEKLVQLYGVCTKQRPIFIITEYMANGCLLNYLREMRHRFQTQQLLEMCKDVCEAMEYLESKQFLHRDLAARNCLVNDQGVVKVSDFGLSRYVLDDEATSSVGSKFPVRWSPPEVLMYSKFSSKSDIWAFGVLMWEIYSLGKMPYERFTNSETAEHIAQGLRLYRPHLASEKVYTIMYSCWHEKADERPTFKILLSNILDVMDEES
Protocol: as §3

T1 sequence (Q06187 whole entry): as the sequence (Q06187 whole entry Y551A) above, with A551Y counted along it
Sequence of purified, active Btk (Q06187 whole entry): as the sequence (Q06187 whole entry Y551A) above, with A551Y counted along it
Sequence of c-met (P08581 25-1390): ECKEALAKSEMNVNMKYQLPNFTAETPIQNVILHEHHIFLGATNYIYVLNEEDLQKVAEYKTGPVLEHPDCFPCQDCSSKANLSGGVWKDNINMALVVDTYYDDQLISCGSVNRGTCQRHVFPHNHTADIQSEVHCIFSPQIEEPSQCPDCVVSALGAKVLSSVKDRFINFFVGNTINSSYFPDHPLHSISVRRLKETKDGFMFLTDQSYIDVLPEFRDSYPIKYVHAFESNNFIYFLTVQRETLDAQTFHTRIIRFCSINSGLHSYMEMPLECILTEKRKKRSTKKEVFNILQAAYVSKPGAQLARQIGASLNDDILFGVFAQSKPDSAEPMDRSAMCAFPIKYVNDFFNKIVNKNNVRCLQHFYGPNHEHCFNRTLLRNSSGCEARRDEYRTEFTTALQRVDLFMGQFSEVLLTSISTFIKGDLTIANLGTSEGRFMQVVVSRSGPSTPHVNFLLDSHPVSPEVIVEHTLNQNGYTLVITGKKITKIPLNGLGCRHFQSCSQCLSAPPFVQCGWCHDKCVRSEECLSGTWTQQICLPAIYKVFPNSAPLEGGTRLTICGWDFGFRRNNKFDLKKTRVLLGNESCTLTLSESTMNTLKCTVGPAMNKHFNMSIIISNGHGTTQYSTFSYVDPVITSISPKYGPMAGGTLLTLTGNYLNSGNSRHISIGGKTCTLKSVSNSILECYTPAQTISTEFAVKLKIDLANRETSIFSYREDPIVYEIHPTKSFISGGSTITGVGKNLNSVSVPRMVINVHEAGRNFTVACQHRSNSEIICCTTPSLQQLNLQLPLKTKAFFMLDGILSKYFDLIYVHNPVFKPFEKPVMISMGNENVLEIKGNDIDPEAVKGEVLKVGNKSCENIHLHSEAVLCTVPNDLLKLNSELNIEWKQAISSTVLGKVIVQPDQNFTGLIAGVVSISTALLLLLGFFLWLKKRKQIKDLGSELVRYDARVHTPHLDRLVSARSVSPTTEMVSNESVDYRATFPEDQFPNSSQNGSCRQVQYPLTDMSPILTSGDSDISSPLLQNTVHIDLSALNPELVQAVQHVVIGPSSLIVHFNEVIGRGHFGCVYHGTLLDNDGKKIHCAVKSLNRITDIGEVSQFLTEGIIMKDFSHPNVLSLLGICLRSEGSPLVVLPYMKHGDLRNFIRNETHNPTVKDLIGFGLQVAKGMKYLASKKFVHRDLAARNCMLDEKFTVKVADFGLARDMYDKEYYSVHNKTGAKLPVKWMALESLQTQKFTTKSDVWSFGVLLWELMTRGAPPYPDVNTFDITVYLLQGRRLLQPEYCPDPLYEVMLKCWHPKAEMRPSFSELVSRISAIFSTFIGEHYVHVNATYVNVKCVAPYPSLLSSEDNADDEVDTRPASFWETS
Sequence of Lck (P06239 whole entry, species assumed): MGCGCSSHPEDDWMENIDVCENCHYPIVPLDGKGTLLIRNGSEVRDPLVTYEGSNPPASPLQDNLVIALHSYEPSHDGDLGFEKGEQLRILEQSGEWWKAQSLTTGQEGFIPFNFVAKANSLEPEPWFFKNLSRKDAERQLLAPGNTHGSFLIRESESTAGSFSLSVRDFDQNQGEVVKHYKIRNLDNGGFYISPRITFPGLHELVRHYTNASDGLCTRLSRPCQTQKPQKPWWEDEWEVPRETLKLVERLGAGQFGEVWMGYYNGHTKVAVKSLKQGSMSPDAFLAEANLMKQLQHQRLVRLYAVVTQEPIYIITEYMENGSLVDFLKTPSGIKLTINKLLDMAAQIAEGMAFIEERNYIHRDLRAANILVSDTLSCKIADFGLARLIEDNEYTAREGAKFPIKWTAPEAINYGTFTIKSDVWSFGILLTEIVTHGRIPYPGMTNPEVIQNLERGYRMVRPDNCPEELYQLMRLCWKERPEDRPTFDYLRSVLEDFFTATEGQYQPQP
Sequence of Btk Lys 430 to Ala mutant (Q06187 whole entry K430A): as the sequence (Q06187 whole entry Y551A) above, with K430A, A551Y counted along it
Sequence of Abl (P00519 whole entry, species assumed): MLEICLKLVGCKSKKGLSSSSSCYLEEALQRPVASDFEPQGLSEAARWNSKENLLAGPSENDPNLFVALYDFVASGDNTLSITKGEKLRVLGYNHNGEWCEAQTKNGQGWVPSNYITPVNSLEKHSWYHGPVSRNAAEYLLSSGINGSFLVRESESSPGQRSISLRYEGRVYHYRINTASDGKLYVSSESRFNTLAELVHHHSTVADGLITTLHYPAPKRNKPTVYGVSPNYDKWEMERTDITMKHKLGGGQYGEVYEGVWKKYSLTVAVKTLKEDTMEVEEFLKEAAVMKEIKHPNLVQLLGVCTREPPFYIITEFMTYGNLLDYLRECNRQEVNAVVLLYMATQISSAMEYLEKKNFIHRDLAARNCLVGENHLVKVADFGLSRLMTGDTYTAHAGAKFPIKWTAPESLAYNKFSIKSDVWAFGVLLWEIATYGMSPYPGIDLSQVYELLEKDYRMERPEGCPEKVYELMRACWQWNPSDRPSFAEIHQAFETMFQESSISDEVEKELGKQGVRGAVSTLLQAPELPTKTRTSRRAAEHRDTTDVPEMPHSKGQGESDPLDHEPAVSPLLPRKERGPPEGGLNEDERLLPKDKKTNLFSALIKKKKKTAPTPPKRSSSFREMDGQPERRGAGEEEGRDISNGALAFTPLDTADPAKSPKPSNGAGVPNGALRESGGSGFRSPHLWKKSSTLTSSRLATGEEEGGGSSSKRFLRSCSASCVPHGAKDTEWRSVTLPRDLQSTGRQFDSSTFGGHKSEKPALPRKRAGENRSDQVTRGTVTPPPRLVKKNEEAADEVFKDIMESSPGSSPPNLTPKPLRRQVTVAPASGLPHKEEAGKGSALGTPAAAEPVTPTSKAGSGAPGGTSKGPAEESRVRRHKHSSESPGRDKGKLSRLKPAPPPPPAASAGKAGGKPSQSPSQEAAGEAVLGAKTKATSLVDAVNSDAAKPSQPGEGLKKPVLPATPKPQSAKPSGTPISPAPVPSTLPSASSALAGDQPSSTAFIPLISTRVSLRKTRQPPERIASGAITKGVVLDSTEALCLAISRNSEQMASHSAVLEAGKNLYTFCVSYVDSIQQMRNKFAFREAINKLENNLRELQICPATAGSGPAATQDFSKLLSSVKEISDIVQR
Sequence of Btk Cys 481 to Ala mutation (Q06187 whole entry C481A): as the sequence (Q06187 whole entry Y551A) above, with C481A, A551Y counted along it
Sequence of EGFR (P00533 25-1210, species assumed): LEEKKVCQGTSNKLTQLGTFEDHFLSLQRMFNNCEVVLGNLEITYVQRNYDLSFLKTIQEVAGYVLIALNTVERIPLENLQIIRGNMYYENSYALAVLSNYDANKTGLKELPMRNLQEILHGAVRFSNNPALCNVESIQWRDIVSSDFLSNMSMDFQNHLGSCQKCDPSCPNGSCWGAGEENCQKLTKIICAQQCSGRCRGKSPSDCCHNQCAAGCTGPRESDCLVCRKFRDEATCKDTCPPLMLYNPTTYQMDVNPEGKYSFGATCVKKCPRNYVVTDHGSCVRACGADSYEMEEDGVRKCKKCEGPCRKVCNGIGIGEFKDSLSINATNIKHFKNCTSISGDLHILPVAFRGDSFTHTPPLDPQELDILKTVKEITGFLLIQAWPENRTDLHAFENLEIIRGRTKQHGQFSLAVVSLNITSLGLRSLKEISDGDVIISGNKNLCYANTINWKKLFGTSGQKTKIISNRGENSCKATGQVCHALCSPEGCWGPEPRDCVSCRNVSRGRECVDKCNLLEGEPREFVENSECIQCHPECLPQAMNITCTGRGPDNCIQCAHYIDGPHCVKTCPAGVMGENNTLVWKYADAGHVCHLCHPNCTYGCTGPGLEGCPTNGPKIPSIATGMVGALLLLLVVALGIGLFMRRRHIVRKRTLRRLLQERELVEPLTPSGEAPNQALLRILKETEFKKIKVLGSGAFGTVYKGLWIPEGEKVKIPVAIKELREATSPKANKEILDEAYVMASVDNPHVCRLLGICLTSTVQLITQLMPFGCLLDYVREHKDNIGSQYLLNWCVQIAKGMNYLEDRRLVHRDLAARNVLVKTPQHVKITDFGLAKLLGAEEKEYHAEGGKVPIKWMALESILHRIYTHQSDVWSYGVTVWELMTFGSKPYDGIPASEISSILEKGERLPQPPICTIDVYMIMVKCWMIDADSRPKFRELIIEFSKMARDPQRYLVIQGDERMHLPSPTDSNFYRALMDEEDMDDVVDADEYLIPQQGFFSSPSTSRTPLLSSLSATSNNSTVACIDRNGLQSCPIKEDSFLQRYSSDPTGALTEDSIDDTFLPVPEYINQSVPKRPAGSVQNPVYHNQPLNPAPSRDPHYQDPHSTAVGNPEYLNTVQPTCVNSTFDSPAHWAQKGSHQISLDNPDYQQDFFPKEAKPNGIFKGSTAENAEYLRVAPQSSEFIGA

| Effect of pre-incubation on Compound 3 labeling of Btk (purified, active Btk; pre-incubation with 1 μM Compound 2 or 0.5 mM ATPγS) | IC50 (c-met) | IC50 [1] | IC50 (Abl) | IC50 (EGFR) | IC50 (Lck) | IC50 (Btk [2]) | IC50 (Btk [3]; ATP at Km, read-out: IC50 Btk) | IC50 (Btk [3]; read-out: IC50 against Btk) | EC50 (Btk [4]) | Probe concentration at which labeling of Btk reached saturation (purified, active Btk; 1 μg (0.13 μM) purified Btk, 1 hour at 37° C.) | EC50 (Btk [5]) | Probe labeling of Btk C481A mutant [6] | Probe labeling of Btk K430A mutant [7] | Probe labeling of Btk Y551A mutant [8] | Structure (SMILES) |
| --- | --- | --- | --- | --- | --- | --- | --- | --- | --- | --- | --- | --- | --- | --- | --- |
| substantially reduced |  |  |  |  |  |  |  |  |  |  |  |  |  |  | Nc1ncnc2c1ncn2[C@@H]1O[C@H](COP(=O)(O)OP(=O)(O)OP(O)(O)=S)[C@@H](O)[C@H]1O [ATP-γ-S, reference compound] |
|  | 35000 nM | 10 nM |  |  |  |  |  |  |  |  |  |  |  |  | C=CC(=O)N1CCC[C@@H](n2nc(-c3ccc(Oc4ccccc4)cc3)c3c(N)ncnc32)C1 [Compound 2] |
|  | 100000 nM | 230 nM | 300 nM | 2900 nM | 240 nM | 300 nM | 89 nM | 90 nM | ~200 nM | 1 µM | ~200 nM | abrogated labeling | no effect on probe labeling | also labeled | CC1=CC(C)=[N+]2C1=Cc1ccc(CCC(=O)NCCN3CCN(C/C=C/C(=O)N4CCC[C@@H](n5nc(-c6ccc(Oc7ccccc7)cc6)c6c(N)ncnc65)C4)CC3)n1[B-]2(F)F [Compound 3] |

Source: patent US8987233B2, “Bruton's tyrosine kinase activity probe and method of using” (Pharmacyclics, Inc., priority 2006, dated 2015)
